Eleven compounds from patent US5852007A, “Cysteine and serine protease inhibitors containing D-amino acid at the P2 position, methods of making same, and methods of using same” (priority 1997, dated 1998) can be followed below.

What all share (format): biochemical
For assay [1], the target named is T1, Recombinant human calpain I (Homo sapiens, UniProt P07384).
T1 construct: made in house
T1 sequence (P07384 1-714): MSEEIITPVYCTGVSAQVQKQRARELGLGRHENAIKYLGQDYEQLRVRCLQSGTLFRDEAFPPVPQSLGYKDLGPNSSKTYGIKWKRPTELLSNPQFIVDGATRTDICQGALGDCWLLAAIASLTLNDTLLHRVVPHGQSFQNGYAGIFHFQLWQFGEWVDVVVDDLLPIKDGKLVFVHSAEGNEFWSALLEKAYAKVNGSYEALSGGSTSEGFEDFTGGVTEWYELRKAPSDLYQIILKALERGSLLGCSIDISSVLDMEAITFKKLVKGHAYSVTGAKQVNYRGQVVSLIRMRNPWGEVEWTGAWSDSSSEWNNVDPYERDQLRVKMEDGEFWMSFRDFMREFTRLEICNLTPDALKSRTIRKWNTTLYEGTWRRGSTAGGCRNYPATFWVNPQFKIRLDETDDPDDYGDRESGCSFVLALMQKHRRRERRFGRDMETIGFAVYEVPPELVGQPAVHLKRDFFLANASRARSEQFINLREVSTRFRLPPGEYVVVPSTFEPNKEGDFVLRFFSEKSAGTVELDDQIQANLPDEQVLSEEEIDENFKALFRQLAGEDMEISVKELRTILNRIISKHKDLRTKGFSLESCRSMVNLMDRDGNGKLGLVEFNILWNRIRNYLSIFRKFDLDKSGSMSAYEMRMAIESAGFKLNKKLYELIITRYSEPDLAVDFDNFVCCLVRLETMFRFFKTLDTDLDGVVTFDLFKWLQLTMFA
Description: Inhibition of calpain I activity. The note with it: Table III.

The target of the next assay is T2, cathepsin B (Homo sapiens, UniProt P07858).
T2 construct: purchased Calbiochem 219364
Description: Inhibition of cathepsin B. The note with it: Table III; 1 uM; read-out: Cat B % I @ 1 uM. Here is the method:
(§1) Additionally,the order of reagents added to the plate was altered because both enzymes are constitutively active. Following inhibitor addition to the plates, appropriate 2× concentrated stock dilutions of the enzyme preparations were made in assay buffer and 100 μl added to each well. The assay was initiated by addition of 100 μl of 2× concentrated stock dilution of substrate in assay buffer.

In another assay the target is T3, cathepsin L (Homo sapiens, UniProt P07711).
T3 construct: purchased Calbiochem 219402
T3 sequence (P07711 114-288 limits assumed): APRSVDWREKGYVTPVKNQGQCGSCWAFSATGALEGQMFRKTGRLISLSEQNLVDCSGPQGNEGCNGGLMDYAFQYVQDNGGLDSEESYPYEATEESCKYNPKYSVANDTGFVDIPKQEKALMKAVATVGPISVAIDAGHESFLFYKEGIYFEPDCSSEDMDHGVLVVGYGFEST
T3 sequence (P07711 292-333 limits assumed): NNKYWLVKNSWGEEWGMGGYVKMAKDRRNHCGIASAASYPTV
In words: Inhibition of cathepsin L. Particulars: Table III; 1 uM; read-out: Cat L % I @ 1 uM. Here is the method: as §1

The target in another assay is T4, thrombin (Homo sapiens, UniProt P00734).
T4 construct: purchased Sigma Chem. Co. T-7009
In words: Inhibition of thrombin. Particulars: Table III; 10 uM; read-out: Thrombin % I @ 10 uM.

Another assay deals with T5, α-chymotrypsin (Bos taurus, UniProt P00766).
T5 construct: purchased Sigma Chem. Co. C-3142
Description: Inhibition of α-chymotrypsin. The note with it: Table III; 10 uM; read-out: Chymotrypsin % I @ 10 uM. The procedure, abridged: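 Enzyme added to inhibitor first, then reaction started with substrate; no calcium activation needed as enzyme is constitutively active. Fluorogenic substrate hydrolysis read every 5 min up to 30 min ([…]).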

Square brackets hold non-standard residues; d marks the D form. Peptide text beside a SMILES is read from it. * marks the point of attachment. Tos = Cc1ccc(S(=O)(=O)*)cc1; dΔPro = O=C(O)[C@H]1C=CCN1

For `Cc1ccc(S(=O)(=O)O[C@@H]2C[C@H](C(=O)N[C@H](C=O)Cc3ccccc3)N(S(=O)(=O)c3ccc(C)cc3)C2)cc1` [Compound 121], the inhibition at 0.1 µM in assay [1] came out at 28%. Moreover, the inhibition at 1 µM on cathepsin B worked out at 83%; at cathepsin L it was 17%. For the same compound, the inhibition at 10 µM was 3% on thrombin and 18% on α-chymotrypsin.
In the case of `CS(=O)(=O)N[C@H](COCc1ccccc1)C(=O)N[C@H](C=O)CCCCNS(=O)(=O)c1ccccc1` [Compound 122], in assay [1], the IC50 stood at 3 nM. For the same compound, the inhibition at 0.1 µM in assay [1] was found to be 98%. Moreover, the inhibition at 1 µM at cathepsin B and on cathepsin L was 100% throughout. The inhibition at 10 µM at thrombin is 0%; at α-chymotrypsin, 13%.
On to `CCNC(=O)OC[C@H](Cc1ccccc1)NC(=O)[C@H]1CCCN1S(=O)(=O)c1ccc(C)cc1` [Compound 123], for which, in assay [1], the inhibition at 0.1 µM was determined as 7%. Moreover, the inhibition at 1 µM is 16% on cathepsin B and 14% at cathepsin L. The inhibition at 10 µM is 0% on thrombin and 2% at α-chymotrypsin.
On the same counts, the results for `CS(=O)(=O)N[C@H](COCc1ccccc1)C(=O)N[C@@H](Cc1ccccc1)C(O)CCc1ccccc1` (stereo partly shown) [Compound 124] are 20%, 27%, 17%, 2% and 0%.
`CS(=O)(=O)N[C@H](COCc1ccccc1)C(=O)N[C@@H](Cc1ccccc1)C(=O)CCc1ccccc1` [Compound 125]: the inhibition at 0.1 µM in assay [1] was found to be 0%. Moreover, the inhibition at 1 µM at cathepsin B was 47%; on cathepsin L it was 39%. The inhibition at 10 µM on thrombin came out at 4%; on α-chymotrypsin it was 0%.
In the case of `CS(=O)(=O)N[C@H](COCc1ccccc1)C(=O)N[C@H]1CCCCNC1=O` [Compound 126], in assay [1], the inhibition at 0.1 µM was found to be 5%. Also, the inhibition at 1 µM was 2% at cathepsin B and 16% on cathepsin L. The results for the inhibition at 10 µM on thrombin and on α-chymotrypsin were 0% and 6%, respectively.
As for `CC(C)(C)OC(=O)N1CCCC[C@H](NC(=O)[C@@H](COCc2ccccc2)N(C(=O)OC(C)(C)C)S(C)(=O)=O)C1=O` [Compound 127], in assay [1], the inhibition at 0.1 µM came out at 6%. Also, the inhibition at 1 µM was 36% at cathepsin B and 7% at cathepsin L. Also, the values for the inhibition at 10 µM at thrombin and at α-chymotrypsin were 0% and 1%, respectively.
In the case of `CS(=O)(=O)N[C@H](COCc1ccccc1)C(=O)N[C@@H](Cc1ccccc1)C(O)S(=O)(=O)O` (stereo partly shown) [Compound 128], the half-maximal inhibitory concentration (IC50) in assay [1] was determined as 8 nM. Further, the inhibition at 0.1 µM in assay [1] is 89%. Also, the inhibition at 1 µM on cathepsin B is 99%; on cathepsin L it was 100%. Moreover, the inhibition at 10 µM on thrombin is 0%; on α-chymotrypsin, 1%.
In the case of `Cc1ccc(S(=O)(=O)N2C[C@@H](C#N)C[C@@H]2C(=O)N[C@H](C=O)Cc2ccccc2)cc1` [Compound 129], in assay [1], the inhibition at 0.1 µM was 73%. In addition, the results for the inhibition at 1 µM on cathepsin B and on cathepsin L were 64% and 100%, respectively. The inhibition at 10 µM on thrombin was 1%; at α-chymotrypsin it was 6%.
Turning to `Cc1ccc(S(=O)(=O)N2CC=C[C@@H]2C(=O)N[C@H](C=O)Cc2ccccc2)cc1` [Compound 130] (Tos-[dΔPro]-Phe-aldehyde), the IC50 in assay [1] was determined as 10 nM. Further, the inhibition at 0.1 µM in assay [1] stood at 90%. In addition, the results for the inhibition at 1 µM at cathepsin B and on cathepsin L were 62% and 97%, respectively. For the same compound, the inhibition at 10 µM at thrombin was 9%; on α-chymotrypsin, 0%.
As for `CS(=O)(=O)N[C@H](COCc1ccccc1)C(=O)N[C@@H](Cc1ccccc1)C1OCCS1` (stereo partly shown) [Compound 131], the inhibition at 0.1 µM in assay [1] is 6%. In addition, the results for the inhibition at 1 µM on cathepsin B and on cathepsin L were 21% and 55%, respectively. Further, the inhibition at 10 µM came out at 11% on thrombin and 0% at α-chymotrypsin.
